According to patent EP0000322A1, “Compounds having an anti-depressive or tranquilizing activity, pharmaceutical compositions containing them, and processes and intermediates for their preparation” (priority 1977, dated 1979):
Counter-ions that a name gives are not always drawn. Like-named read-outs stand apart in the source and are kept apart here.

Experiments:
[1] = tested on: neuronal uptake of 5-hydroxytryptamine and noradrenaline; test: Overall assessment of the uptake tests (selectivity NA versus 5-HT); set-up: species or system mouse; settings: summary of the results of Table I
[2] = tested on: neuronal uptake of 5-hydroxytryptamine; test: Inhibition of the uptake of 14C-5-HT in brain slices after in vivo (i.p.) administration; set-up: species or system mice; settings: for ED50: Mus musculus, ip, 0.5 h; for Inhibition of the uptake in vivo i.p. ED50 5-HT: 30 min
Protocol: (§1) The test method described in Europ. J. Pharmacol. 17, 107, 1972. This method involves the measurement of the decrease in the uptake of ^14C-5-hydroxytryptamine (^14C-5-HT) and ^3H- -noradrenaline (^3H-NA) in brain slices from mice after in vivo and in vitro administration of the test substance.
(§2) The test substances were administered intraperitoneally half an hour before the animals were killed. The midbrain was taken out, sliced and incubated in a mixture consisting of 0.2 nmole of ^14C-5-HT, 0.2 nmole of ^3H-NA and 11 µmole of glucose in 2 ml of Krebs Henseleit-buffer, pH 7.4 per 100 mg of brain slices. The incubation time was 5 minutes with 5 minutes of preincubation before the labelled amines were added. The slices were dissolved in Soluene and the amounts of radioactive amines taken u^p were determined by liquid scintillation. The doses producing 50 per cent decrease of the active uptake (ED50) of ^14C-5-HT and ^3H-NA were determined graphically from dose response curves. Active uptake is defined as that part of the radioactive uptake which is inhibited by a high concentration of cocaine.

[3] = tested on: neuronal uptake of noradrenaline; test: Inhibition of the uptake of 3H-NA in brain slices after in vivo (i.p.) administration; set-up: species or system mice; settings: for ED50: Mus musculus, ip, 0.5 h; for Inhibition of the uptake in vivo i.p. ED50 NA: 30 min
Protocol: as §1, §2

[4] = target: neuronal uptake of noradrenaline (Mus musculus, UniProt O55192); test: Inhibition of the uptake of 3H-NA in mouse midbrain slices, in vitro administration; format: cell-based; settings: slices from mouse brain (midbrain), 5 min preincubation with compound
Sequence of neuronal uptake of noradrenaline (Mus musculus, UniProt O55192) (O55192 whole entry): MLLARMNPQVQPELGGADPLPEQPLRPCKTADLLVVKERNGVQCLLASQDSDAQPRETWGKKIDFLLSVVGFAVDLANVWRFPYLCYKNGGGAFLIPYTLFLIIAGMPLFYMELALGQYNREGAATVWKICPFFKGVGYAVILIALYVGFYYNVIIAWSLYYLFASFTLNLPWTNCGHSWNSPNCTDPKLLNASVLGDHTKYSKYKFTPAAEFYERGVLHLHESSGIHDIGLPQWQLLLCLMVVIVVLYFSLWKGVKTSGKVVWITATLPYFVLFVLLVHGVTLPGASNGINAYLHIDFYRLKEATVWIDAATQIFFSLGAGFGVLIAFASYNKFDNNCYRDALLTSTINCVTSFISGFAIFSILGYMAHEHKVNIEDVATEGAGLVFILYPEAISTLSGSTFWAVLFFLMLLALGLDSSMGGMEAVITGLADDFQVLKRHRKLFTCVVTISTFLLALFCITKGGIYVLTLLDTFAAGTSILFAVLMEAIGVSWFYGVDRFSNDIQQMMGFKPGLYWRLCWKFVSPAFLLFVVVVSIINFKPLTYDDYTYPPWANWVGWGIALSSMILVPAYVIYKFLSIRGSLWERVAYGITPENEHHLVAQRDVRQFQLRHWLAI
Protocol: as §1
as §2, with “Active uptake is defined as that part of the radioactive uptake which is inhibited by a high concentration of cocaine.” left out
(§3) In the vitro administration method slices of mouse midbrain were preincubated for 5 minutes with solution of the compound to be tested and then incubated as described above. The concentration producing 50 per cent inhibition of the active uptake IC50 of ^14C-5-HT and 3-H-NA was determined graphically from dose response curves.

[5] = target: neuronal uptake of 5-hydroxytryptamine (Mus musculus, UniProt Q60857); test: Inhibition of the uptake of 14C-5-HT in mouse midbrain slices, in vitro administration; format: cell-based; settings: slices from mouse brain (midbrain), 5 min preincubation with compound
Sequence of neuronal uptake of 5-hydroxytryptamine (Mus musculus, UniProt Q60857) (Q60857 whole entry): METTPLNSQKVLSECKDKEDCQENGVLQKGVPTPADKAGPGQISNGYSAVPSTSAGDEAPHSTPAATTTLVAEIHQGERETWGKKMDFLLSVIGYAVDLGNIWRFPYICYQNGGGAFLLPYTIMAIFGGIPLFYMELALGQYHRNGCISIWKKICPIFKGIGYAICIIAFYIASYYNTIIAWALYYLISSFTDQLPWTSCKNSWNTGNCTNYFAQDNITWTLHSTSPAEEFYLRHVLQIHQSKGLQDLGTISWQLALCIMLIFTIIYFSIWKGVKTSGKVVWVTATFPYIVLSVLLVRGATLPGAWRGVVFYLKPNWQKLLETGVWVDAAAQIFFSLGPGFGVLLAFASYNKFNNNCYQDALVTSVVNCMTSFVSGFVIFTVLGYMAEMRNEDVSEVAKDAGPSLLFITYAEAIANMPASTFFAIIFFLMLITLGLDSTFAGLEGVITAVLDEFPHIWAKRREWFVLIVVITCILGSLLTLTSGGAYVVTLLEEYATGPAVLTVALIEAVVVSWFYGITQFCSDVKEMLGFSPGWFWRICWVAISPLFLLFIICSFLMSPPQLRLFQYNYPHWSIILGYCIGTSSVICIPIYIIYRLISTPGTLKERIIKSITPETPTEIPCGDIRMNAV
Protocol: as §1
as §2, with “Active uptake is defined as that part of the radioactive uptake which is inhibited by a high concentration of cocaine.” left out
as §3

[6] = i.p. half an hour before the animals were killed, midbrain slices, read-out: Inhibition of the uptake in vivo i.p. ED50 5-HT
[7] = i.p. half an hour before the animals were killed, midbrain slices, read-out: Inhibition of the uptake in vivo i.p. ED50 NA
[8] = i.p. half an hour before the animals were killed, midbrain slices
[9] = i.p. half an hour before the animals were killed, midbrain slices, hydrochloride
[10] = read-out: Inhibition of the uptake in vivo i.p. ED50 5-HT, i.p. half an hour before the animals were killed, midbrain slices
[11] = read-out: Inhibition of the uptake in vivo i.p. ED50 NA, i.p. half an hour before the animals were killed, midbrain slices

| Compound | ED50 [2, 6] [µmol/kg] | ED50 [3, 7] [µmol/kg] | Inhibition of the uptake in vivo i.p. ED50 NA [3, 8] [µmol/kg] | other results |
| --- | --- | --- | --- | --- |
| COc1ccc(C(CC(C)N)c2ccccc2)cc1 (single isomer, unassigned) [CPK 160] |  |  |  | activity on uptake of noradrenaline and 5-hydroxytryptamine (assessment in words) [1]: pronounced non-selective activity |
| CC(N)CC(c1ccccc1)c1ccc(F)cc1 (single isomer, unassigned) [CPK 163, (α)-3-(4-fluorophenyl)-1-methyl-3-phenylpropylamine oxalate] | 32 | 32 |  |  |
| CC(N)CC(c1ccccc1)c1ccc(Br)cc1 (single isomer, unassigned) [CPK 165, (α)-3-(4-bromophenyl)-1-methyl-3-phenylaropylamine maleate] |  |  | 62 | Inhibition of the uptake in vivo i.p. ED50 5-HT [2, 8]: 61 µmol/kg |
| CC(N)CC(c1ccccc1)c1ccc(F)cc1 (single isomer, unassigned) [CPK 170, (β)-3-(4-fluorophenyl)-1--methyl-3-phenylpropylamine hydrochloride] |  |  |  | activity on uptake of noradrenaline and 5-hydroxytryptamine (assessment in words) [1]: pronounced non-selective activity; Inhibition of the uptake in vivo i.p. ED50 5-HT [2, 9]: 37 µmol/kg; Inhibition of the uptake in vivo i.p. ED50 NA [3, 9]: 34 µmol/kg |
| CC(N)CC(c1ccccc1)c1ccc(Br)cc1 (single isomer, unassigned) [CPK 171, (β)-3-(4-bromophenyl)-1-methyl-3-phenylpropylamine] |  |  | 29 | activity on uptake of noradrenaline and 5-hydroxytryptamine (assessment in words) [1]: pronounced non-selective activity; Inhibition of the uptake in vivo i.p. ED50 5-HT [2, 8]: 29 µmol/kg |
| COc1ccc(C(CC(C)N)c2ccccc2)cc1 (single isomer, unassigned) [CPK 180, (α)-3-(4-methoxyphenyl)-1-methyl-3-phenylpropylamine] |  |  |  | ED50 [2, 10]: 54 µmol/kg; ED50 [3, 11]: 78 µmol/kg |
| CC(N)CC(c1ccccc1)c1cccc(Br)c1 (single isomer, unassigned) [CPK 184, (β)-3-(3-bromophenyl)-1-methyl-3-phenylpropylamine] | 9.9 | 7.7 |  | activity on uptake of noradrenaline and 5-hydroxytryptamine (assessment in words) [1]: pronounced non-selective activity |
| CC(N)CC(c1ccccc1)c1ccccc1Br (single isomer, unassigned) [CPK 185, (α)-3-(2-bromophenyl)-1-methyl-3-phenylpropylamine maleate] |  |  | 4.1 | activity on uptake of noradrenaline and 5-hydroxytryptamine (assessment in words) [1]: pronounced selective activity on uptake of noradrenaline; Inhibition of the uptake in vivo i.p. ED50 5-HT [2, 8]: 5.7 µmol/kg |
| CC(N)CC(c1ccccc1)c1ccc(C(F)(F)F)cc1 (single isomer, unassigned) [CPK 195, (α)-1-methyl-3-(4-trifluoromethylphenyl)-3-phenylpropylamine maleate] |  |  |  | ED50 [2, 10]: 98 µmol/kg; ED50 [3, 11]: > 98 µmol/kg |
| CC(N)CC(c1ccccc1)c1ccccc1Br (single isomer, unassigned) [CPK 197, (β)-3-(2-bromophenyl)-1-methyl-3--phenyl-propylamine maleate] |  |  | 28 | Inhibition of the uptake in vivo i.p. ED50 5-HT [2, 8]: >95 µmol/kg |
| COc1ccc(C(CC(C)N)c2ccccc2)cc1 (single isomer, unassigned) [CPK 198, (β)-3-(4-methoxyphenyl)-1-methyl-3-phenylpropylamine] |  |  | 52 | activity on uptake of noradrenaline and 5-hydroxytryptamine (assessment in words) [1]: pronounced selective activity on uptake of 5-hydroxytryptamine; Inhibition of the uptake in vivo i.p. ED50 5-HT [2, 8]: 33 µmol/kg |
| CC(N)CC(c1ccccc1)c1ccc(C(F)(F)F)cc1 (single isomer, unassigned) [CPK 199, (β)-1-methyl-3-(4-trifluoromethylphenyl)-3-phenylpropylamine maleate] |  |  | >98 | Inhibition of the uptake in vivo i.p. ED50 5-HT [2, 8]: >98 µmol/kg |
| CC(N)CC(c1ccccc1)c1ccccc1 (stereo not shown) [3,3-diphenyl-1-methylpropylamine fumarate, reference compound] | 75 | 50 |  |  |
| CC(N)CC(c1ccccc1)c1cccc(Br)c1 (stereo not shown) [CPK 155, 3-(3-bromophenyl)-1-methyl-3-phenylpropylamine] | > 95 | 49 |  |  |
| CNC(C)CC(c1ccccc1)c1ccc(Br)cc1 (stereo not shown) [CPK 187, N, 1-dimethyl-3(4-bromophenyl)--3-phenylpropylamine] | 98 | > 98 |  |  |
| CC(N)/C=C(\c1ccccc1)c1ccc(Br)cc1 (stereo not shown) [CPK 204, (E)-3-amino-1-(4-bromophenyl)-1-phenylbutene oxalate] | 40 | 48 |  |  |
| CC(N)/C=C(\c1ccccc1)c1cccc(Br)c1 (stereo not shown) [CPK 215, (E)-3-amino-1-(3-bromophenyl)-1-phenylbutene] | 96 | 24 |  |  |
| CC(N)/C=C(/c1ccccc1)c1cccc(Br)c1 (stereo not shown) [CPK 217, (Z)-3-amino-1-(3-bromophenyl)-1-phenylbutene] | 118 | 35 |  |  |
| CC(N)/C=C(/c1ccc(Br)cc1)c1cccnc1 (stereo not shown) [CPP 179] | 89 | > 89 |  |  |
| CN(C)CCCN1c2ccccc2CCc2ccc(Cl)cc21 [Chloroimipramine, reference compound] |  |  |  | IC50 [4]: 900 nM; ED50 [3, 11]: 150 µmol/kg |
| CC(N)C=C(c1ccc(Br)cc1)c1ccc(Br)cc1 (stereo not shown) [FLA 608, 3-amino-1,1-di(4-bromophenyl)-1--butene hydrochloride] | 62 | 57 |  |  |
| COc1ccc(C(=CC(C)N)c2ccc(OC)cc2)cc1.O=C(O)/C=C/C(=O)O (stereo not shown) [FLA 611, 3-amino-1,1-di(4-methoxyphenyl)--1-butene fumarate] | 63 | 108 |  | activity on uptake of noradrenaline and 5-hydroxytryptamine (assessment in words) [1]: pronounced selective activity on uptake of 5-hydroxytryptamine |
| CC(N)C=C(c1ccc(F)cc1)c1ccc(F)cc1 (stereo not shown) [FLA 613, 3-amino-1,1-di-(4-fluorphenyl)-1-butene fumarate] | 38 | 106 |  |  |
| COc1ccc(C(CC(C)N)c2ccc(OC)cc2)cc1 (stereo not shown) [FLA 614, 3,3-di-(4-methoxyphenyl)-1-methyl--propylamine fumarate] | 25 | 100 |  |  |
| CC(N)CC(c1ccc(F)cc1)c1ccc(F)cc1.Cl (stereo not shown) [FLA 615, 3,3-di-(4-fluorophenyl)-1-methylpropylamine hydrochloride] | 29 | 57 |  | activity on uptake of noradrenaline and 5-hydroxytryptamine (assessment in words) [1]: pronounced selective activity on uptake of 5-hydroxytryptamine |
| Cc1cccc(C(=CC(C)N)c2cccc(C)c2)c1 (stereo not shown) [FLA 618, 3-amino-1,1-di-(3-methylphenyl)-1-butene hydrochloride] | 93 | 56 |  |  |
| Cc1cccc(C(CC(C)N)c2cccc(C)c2)c1 (stereo not shown) [FLA 619, 1,3', 3"-trimethyl-3,3-diphenyl-propylamine oxalate] | 116 | 48 |  |  |
| CNCC=C(c1ccc(Br)cc1)c1cccnc1 [N-methyl-3-(4-bromophenyl)-3-(3-pyridyl)-allylamine E-isomer, N-methyl-3-(4-bromophenyl)-3-(3-pyridyl)-allylamine, reference compound] |  |  | 25 |  |
| CNCC=C(c1ccc(Br)cc1)c1cccnc1 [N-methyl-3-(4-bromophenyl)-3-(3-pyridyl)-allylamine Z-isomer, N-methyl-3-(4-bromophenyl)-3-(3-pyridyl)-allylamine, reference compound] |  |  | >102 | Inhibition of the uptake in vivo i.p. ED50 5-HT [2, 8]: 19 µmol/kg |
| (Z)-3-amino-1-(4-bromophenyl)-1--phenylbutene maleate [CPK 150] |  |  | 96 | IC50 [5]: 3000 nM; Inhibition of the uptake in vivo i.p. ED50 5-HT [2, 8]: >96 µmol/kg; IC50 [4]: 2000 nM |
